Assay results published in patent US9212189B2, “Fluorescent probes for reactive sulfur species” (THE REGENTS OF THE UNIVERSITY OF CALIFORNIA, priority 2011, dated 2015).

Experiments:
[1] = Fluorescence response of 4-azido-1,8-naphthalimide to H2S
Method: FIG. 8. Fluorescence response of 10 μM 4-azido-1,8-naphthalimide to 100 μM H2S. Data were acquired at 25° C. in 20 mM HEPES buffered to pH 7.4 with excitation at λex=470 nm. Emission was collected between 495 and 650 nm. Time points represent 0, 15, 30, 45, and 60 min (red trace) after addition of 100 μM H2S. Reactions are not complete at these time points.

[2] = Spectroscopic properties (absorbance, emission, quantum yield); type: physicochemical; settings: for absorption of the protected probe in the visible region: protected form, closed lactone conformation; for ε (extinction coefficient) of reaction product: at λmax; for Φ (quantum yield) of reaction product: fluorescein as standard, 20 mM HEPES pH 7.4; for λmax (absorbance) of reaction product: new absorbance band in the visible region; for λem of reaction product: product formed from 10 μM probe with 100 μM NaSH
Method: (§1) Millipore water was used to prepare all aqueous solutions. All spectroscopic measurements were performed in 20 mM HEPES buffer, pH 7.4. Fluorescence spectra were recorded on a Photon Technology International Quanta Master 4 L-format scanning spectrofluorometer (Lawrenceville, N.J.) equipped with an LPS-220B 75-W xenon lamp and power supply, A-1010B lamp housing with an integrated igniter, switchable 814 photon-counting/analog photomultiplier detection unit, and MD5020 motor driver. Samples for emission measurements were contained in 1-cm×0.1-cm quartz (1.5 mL volume, Starna, Atascadero, Calif.). Absorption spectra were recorded using a Varian Cary 50 spectrophotometer (Walnut Creek, Calif.).
FIG. 1. Absorbance spectra of (a) 10 μM SF1 (b) 10 μM SF2, and 10 μM of rhodamine products (c) tert-butoxycarbonyl-rhodamine 110 and (d) morpholinourea-rhodamine 110.
Quantum yields were determined using fluorescein as a standard according to a published method.^S3 For each compound and fluorescein, the absorbance spectra were measured within an absorbance range of 0.01 to 0.1. The quantum yield was calculated according to the equation: Φsample=Φstandard (Gradsample/Gradstandard)[…], where Φ is the quantum yield, Φstandard=0.95 in 0.1 M NaOH, Grad is the slope of the plot of […], and η is the refractive index of the solvent.

HEK293T cells = assay: Confocal imaging of H2S detection in live HEK293T cells; type: cell-based; settings: for intracellular fluorescence intensity after NaSH: 5 μM probe 30 min, then 250 μM NaSH 30 min, excitation 488 nm; for background response in untreated cells: absence of exogenous H2S; for cell viability over the course of the experiments: bright field images co-localized with Hoescht nuclear staining
Method: HEK 293T cells were maintained in exponential growth as a monolayer in Dulbecco's Modified Eagle Medium (DMEM, Invitrogen) supplemented with 10% fetal bovine serum (FBS, Hyclone), and incubated at 37° C. in 5% CO2. One or two days before imaging, the cells were passaged and plated in phenol red-free medium on 4-well Lab-Tek borosilicate chambered coverglass slides (Nunc) and allowed to grow to 50-70% confluence. For all experiments, solutions of SF1 and SF2 were prepared in DMF (5 mM) and diluted into DMEM at the desired working concentrations (5 μM). NaSH was delivered from a stock solution of 25 mM in degassed (by bubbling N2 for ˜30 min) Dulbecco's Phosphate Buffered Saline (DPBS). Cells were treated with SF1 or SF2 for one hour, with NaSH (50-250 μM) or blank control added for the final 30 minutes. Images were collected at 30 min after NaSH addition. For nuclear imaging studies, cells were incubated with 1 μM Hoechst 33342 at 37° C. for 30 min prior to imaging.
Confocal Imaging Experiments. Confocal fluorescence imaging studies were performed with a Zeiss laser scanning microscope 710 with a 40× water objective lens, with Zen 2009 software (Carl Zeiss). SF1 and SF2 were excited using a 488 nm Ar laser, and emission collected using a META detector between 500 and 650 nm. Hoechst 33342 was excited with a 405 nm diode laser, and emission collected using a META detector between 450 and 500 nm. The cells were imaged at 37° C. and 5% CO2 throughout the course of the experiment. Image analysis was performed using ImageJ (National Institute of Health).
FIG. 6. Confocal images of H2S detection in live HEK293T cells using SF1 and SF2. (a) HEK293T cells incubated with SF1 for 60 min at 37° C. (b) HEK293T cells incubated with SF1 for 60 min at 37° C. with 250 μM NaSH added for the final 30 min. (c) Brightfield images of the same field of cells in (b) overlaid with images of 1 μM Hoescht stain at 37° C. (d) HEK293T cells incubated with SF2 for 60 min at 37° C. (e) HEK293T cells incubated with SF2 for 60 min at 37° C. with 250 μM NaSH added for the final 30 min. (f) Brightfield images of the same field of cells in (e) overlaid with images of 1 μM Hoescht stain at 37° C. Scale bars represent […].
FIG. 7. Mean fluorescence intensity of confocal images of H2S detected in live HEK293T cells treated with 0, 50, 100, and 250 μM H2S. (a) HEK293T cells were incubated with SF1 for 60 min at 37° C. with the indicated amount of H2S added for the final 30 min. (b) HEK293T cells were incubated with SF2 for 60 min at 37° C. with the indicated amount of H2S added for the final 30 min. Data represent the mean fluorescence intensity of distinct fields (n=4). Error bars are ±s.e.m.

[3] = Selectivity tests: fluorescence responses to biologically relevant RSS, RNS and ROS; settings: for turn-on response for H2S relative to other RSS, ROS and RNS: 10 μM probe, 20 mM HEPES pH 7.4; for selectivity for H2S over abundant biologically relevant thiols: 5 mM glutathione and 5 mM cysteine (50× the amount of H2S tested); for response to most biologically relevant ROS or RNS: H2O2, tBuOOH, OCl−, NO2−, NO; for fluorescence response to other relevant RSS: thiosulfate, thiocyanate, S-nitroso glutathione, lipoic acid
Method: Selectivities for the SF1 and SF2 probes were measured by fluorescence responses (λex=488 nm, λem=525 nm) at 0, 15, 30, 45, and 60 min. All assays were performed in 20 mM HEPES buffered to pH 7.4. • H2S: 10 μL of a 10 mM stock solution of NaSH in degassed HEPES was added to 10 μM SF1 or SF2 in HEPES with 0.2% DMF. • Glutathione and cysteine: 2 μL of 5 mM SF1 or SF2 in DMF was added to 998 μL 5 mM glutathione or cysteine HEPES. • Lipoic acid: 10 μL of a 10 mM stock solution of lipoic acid in HEPES was added to 990 μL of 10 μM SF1 or SF2 in HEPES with 0.2% DMF. • Na2SO3: 10 μL of a 10 mM stock solution of Na2SO3 in HEPES was added to 990 μL of 10 μM SF1 or SF2 in HEPES with 0.2% DMF. • NaS2O3: 10 μL of a 10 mM stock solution of NaS2O3 in HEPES was added to 990 μL of 10 μM SF1 or SF2 in HEPES with 0.2% DMF. • KSCN: 10 μL of a 10 mM stock solution of KSCN in HEPES was added to 990 μL of 10 μM SF1 or SF2 in HEPES with 0.2% DMF. • S-nitrosoglutathione:^S4 10 μL of a 10 mM stock solution of S-nitroso glutathione in HEPES was added to 990 μL of 10 μM SF1 or SF2 in HEPES with 0.2% DMF. • NaNO2: 10 μL of a 10 mM stock solution of NaNO2 in HEPES was added to 990 μL of 10 μM SF1 or SF2 in HEPES with 0.2% DMF. • NO: 5 μL of a 10 mM stock solution of Proli-NONOATE in degassed (by bubbling N2 for ˜30 min) 10 mM NaOH in HEPES was added to 995 μL of a degassed (by bubbling N2 for ˜30 min) solution of 10 μM SF1 or SF2 in HEPES with 0.2% DMF. • H2O2: 10 μL of a 10 mM stock solution of H2O2 in HEPES was added to 990 μL of 10 μM SF1 or SF2 in HEPES with 0.2% DMF. • O2^−: 100 μL of a saturated solution of KO2 in DMSO (˜1 mM) was added to 900 μL of 10 μM SF1 or SF2 in HEPES with 0.2% DMF. • ^tBuOOH: 10 μL of a 10 mM stock solution of tBuOOH in HEPES buffered to was added to 990 μL of 10 μM SF1 or SF2 in HEPES with 0.2% DMF. • HOCl: 10 μL of a 10 mM stock solution of HOCl in HEPES was added to 990 μL of 10 μM SF1 or SF2 in HEPES with 0.2% DMF.
FIG. 5. Fluorescence responses of (a) 10 μM SF1 and (b) 10 μM SF2 to biologically relevant RSS, RNS, and ROS. Bars represent relative responses at 525 nm at 0, 15, 30, 45, and 60 min after addition of RSS, RNS, or ROS. Data shown are for 5 mM glutathione, 5 mM cysteine, and 100 μM for other RSS, RNS, and ROS. Data were acquired in 20 mM HEPES buffered at pH 7.4 with excitation at λex=488 nm. 1. H2S; 2. glutathione; 3. cysteine; 4. lipoic acid; 5. Na2SO3; 6. NaS2O3; 7. KSCN; 8. S-nitroso glutathione; 9. NaNO2; 10. NO; 11. H2O2; 12. O2^−; 13. ^tBuOOH; 14. HOCl.

[4] = Fluorescence response of probe to H2S (NaSH) in HEPES buffer; settings: 10 μM probe, 100 μM NaSH, after one hour of reaction
Method: as §1
A 10 μM solution of SF1 or SF2 in 20 mM HEPES buffered to pH 7.4 was prepared from a 5 mM stock solution of SF1 or SF2 in DMF in a 1.5 mL eppendorf tube. 10 μL of 10 mM stock solution of NaSH in degassed (by bubbling N2 for ˜30 min) 20 mM HEPES buffered at pH 7.4 was added (for a final concentration of 100 μM) and the mixture was vortexed for 10 s and then transferred to a cuvette. Emission spectra (λex=488 nm, λex=498-700 nm) were collected at 10, 20, 30, 40, 50, and 60 min. The spectrum at t=0 was acquired from a 10 μM solution of SF1 or SF2 without the addition of NaSH.
FIG. 2. Fluorescence responses of (a) 10 μM SF1 and (b) 10 μM SF2 to 100 μM H2S. […]

Row | Compound | emission compared with SF1 and SF2 [1] | absorption of the protected probe in the visible region [2] | intracellular fluorescence intensity after NaSH (HEK293T cells) | background response in untreated cells (HEK293T cells) | cell viability over the course of the experiments (HEK293T cells) | cellular permeability (HEK293T cells; live HEK293T cells) | selectivity for H2S versus superoxide (O2−) [3] | turn-on response for H2S relative to other RSS, ROS and RNS [3] | selectivity for H2S over abundant biologically relevant thiols [3] | response to most biologically relevant ROS or RNS [3] | fluorescence response to other relevant RSS ([3]; sulfite) | turn-on response (fluorescence) [4] [fold] | staining of cellular nuclei (HEK293T cells; live HEK293T cells) | fluorescence properties in vitro as compared to SF1 ([3]; greater response to H2S, lower background reactivity, better selectivity versus glutathione, sulfite, O2−) | ε (extinction coefficient) of reaction product [2] | Φ (quantum yield) of reaction product [2] | λmax (absorbance) of reaction product [2] [nm] | λem of reaction product [2] [nm]
1 | [N-]=[N+]=Nc1ccc2c3c(cccc13)C(=O)NC2=O [4-Azido-1,8-naphthalimide] | red-shifted emission |  |  |  |  |  |  |  |  |  |  |  |  |  |  |  |  | 
2 | CC(C)(C)OC(=O)Nc1ccc2c(c1)Oc1cc(N=[N+]=[N-])ccc1C21OC(=O)c2ccccc21 (stereo not drawn) [SF1, Sulfidefluor-1] |  | no absorption features in the visible region | patent increase in intracellular fluorescence intensity | little background response | confirm the cell viability | exceptional cellular permeability | good selectivity | selective turn-on response | high selectivity | do not respond | negligible or small fluorescence responses | 7 |  |  |  |  |  | 
3 | [N-]=[N+]=Nc1ccc2c(c1)Oc1cc(NC(=O)N3CCOCC3)ccc1C21OC(=O)c2ccccc21 (stereo not drawn) [SF2, Sulfidefluor-2] |  | no absorption features in the visible region | patent increase in intracellular fluorescence intensity | little background response | confirm the cell viability | exceptional cellular permeability | good selectivity | selective turn-on response | high selectivity | do not respond | negligible or small fluorescence responses | 9 | significant staining of the cellular nuclei | more favorable fluorescence properties in vitro |  |  |  | 
4 | morpholinourea-rhodamine 110 [Product from SF2] |  |  |  |  |  |  |  |  |  |  |  |  |  |  | 75,000 M^−1cm^−1 | 0.60 | 492 | 525
5 | tert-butoxycarbonyl-rhodamine 110 [Product from SF1] |  |  |  |  |  |  |  |  |  |  |  |  |  |  | 61,000 M^−1cm^−1 | 0.51 | 490 | 525
